Data taken from US10144708B2, “Crystalline arylalkylamine compound and process for producing the same” (MITSUBISHI TANABE PHARMA CORPORATION, priority 2013, dated 2018).

Tests used:
Format in all cases: physicochemical
[1] = Stability test: storage of Compound (A) and salts thereof, total increase in amounts of related substance; settings: for Total increase in amounts of related substance (%): storage 60° C., 1 Week; for Increase in the amounts of related substance on storage (in words): storage conditions of Table 3 (60° C., Natural or 75% RH, 1 Week)
Method: Compound (A) and salts thereof were stored under the storage conditions described in Table 3, and the total increase in the amounts of related substance was measured.

[2] = as above; settings: conditions of No. 16 of Table 3: 60° C., 75% RH, 1 Week
[3] = Determination of crystal form stable at room temperature (form A and form B suspended together in chloroform, powder X-ray diffractometry); settings: equal amounts of form A and form B suspended in chloroform, stirred at room temperature overnight
Method: Equal amounts of the form A crystal and the form B crystal of Compound (A) were added to the same container and were suspended in chloroform. The suspension was stirred at room temperature overnight. Thereafter, the suspended matter was filtered off and was analyzed by powder X-ray diffractometry to determine the type of the crystal form.

[4] = Natural humidity, hydrochloride

C[C@@H](N[C@H]1CCN(c2ccc(CC(=O)O)cc2)C1)c1cccc2ccccc12.Cl [Compound (A) 1.5HCl Amorphous, 4-(3S-(1R-(1-naphthyl)ethylamino)pyrrolidin-1-yl)phenylacetic acid-1.5 hydrochloride]
Total increase in amounts of related substance (%) ([1]; 75% RH, hydrochloride): 3.11% | Total increase in amounts of related substance (%) [1, 4]: 8.21% | Increase in the amounts of related substance on storage (in words) ([1]; listed as amorphous Compound (A).1.5 hydrochloride, hydrochloride): significantly increased

C[C@@H](N[C@H]1CCN(c2ccc(CC(=O)O)cc2)C1)c1cccc2ccccc12.Cl [Compound (A) 1.7HCl Amorphous, 4-(3S-(1R-(1-naphthyl)ethylamino)pyrrolidin-1-yl)phenylacetic acid.1.7 hydrochloride]
Total increase in amounts of related substance (%) ([1]; 75% RH, hydrochloride): 3.06% | Total increase in amounts of related substance (%) [1, 4]: 8.33% | Increase in the amounts of related substance on storage (in words) ([1]; listed as amorphous Compound (A).1.7 hydrochloride, hydrochloride): significantly increased

Br.C[C@@H](N[C@H]1CCN(c2ccc(CC(=O)O)cc2)C1)c1cccc2ccccc12 [Compound (A) 1HBr Crystal, 4-(3S-(1R-(1-naphthyl)ethylamino)pyrrolidin-1-yl)phenylacetic acid.monohydrobromide]
Total increase in amounts of related substance (%) ([1]; 75% RH): 0.13% | Total increase in amounts of related substance (%) ([1]; Natural humidity): 0.21% | Increase in the amounts of related substance on storage (in words) [1]: increase in the amounts of related substance was observed

C[C@@H](N[C@H]1CCN(c2ccc(CC(=O)O)cc2)C1)c1cccc2ccccc12.Cl [Compound (A) 1HCl Crystal, 4-(3S-(1R-(1-naphthyl)ethylamino)pyrrolidin-1-yl)phenylacetic acid-monohydrochloride]
Total increase in amounts of related substance (%) ([1]; 75% RH): 1.02% | Total increase in amounts of related substance (%) ([1]; Natural humidity): 0.18% | Increase in the amounts of related substance on storage (in words) ([1]; listed as Compound (A).monohydrochloride): increase in the amounts of related substance was observed

C1CCOC1.C[C@@H](N[C@H]1CCN(c2ccc(CC(=O)O)cc2)C1)c1cccc2ccccc12.Cl [Compound (A) 1HCl•1THF Crystal, 4-(3S-(1R-(1-naphthyl)ethylamino)pyrrolidin-1-yl)phenylacetic acid.monohydrochloride.monotetrahydrofuran solvate]
Total increase in amounts of related substance (%) ([1]; 75% RH): 1.04% | Total increase in amounts of related substance (%) ([1]; Natural humidity): 0.75% | Increase in the amounts of related substance on storage (in words) [1]: increase in the amounts of related substance was observed | Change of solid form on storage [2]: conversion thereof into Compound (A).monohydrochloride (crystal)

C[C@@H](N[C@H]1CCN(c2ccc(CC(=O)O)cc2)C1)c1cccc2ccccc12 [Compound (A) Amorphous, 4-(3S-(1R-(1-naphthyl)ethylamino)pyrrolidin-1-yl)phenylacetic acid (amorphous)]
Total increase in amounts of related substance (%) ([1]; 75% RH): 14.16% | Total increase in amounts of related substance (%) ([1]; Natural humidity): 3.32% | Increase in the amounts of related substance on storage (in words) ([1]; listed as amorphous Compound (A)): significantly increased

C[C@@H](N[C@H]1CCN(c2ccc(CC(=O)O)cc2)C1)c1cccc2ccccc12 [Compound (A) Crystal (Form A), 4-(3S-(1R-(1-naphthyl)ethylamino)pyrrolidin-1-yl)phenylacetic acid (form A crystal)]
Total increase in amounts of related substance (%) ([1]; 75% RH): 0.01% | Total increase in amounts of related substance (%) ([1]; Natural humidity): 0.03% | Increase in the amounts of related substance on storage (in words) ([1]; listed as form A crystal of Compound (A)): did not show a marked increase | Crystal form stable at room temperature [3]: more stable at room temperature

C[C@@H](N[C@H]1CCN(c2ccc(CC(=O)O)cc2)C1)c1cccc2ccccc12 [Compound (A) Crystal (Form B), 4-(3S-(1R-(1-naphthyl)ethylamino)pyrrolidin-1-yl)phenylacetic acid (form B crystal)]
Total increase in amounts of related substance (%) ([1]; 75% RH): 0.00% | Total increase in amounts of related substance (%) ([1]; Natural humidity): 0.00% | Increase in the amounts of related substance on storage (in words) ([1]; listed as form B crystal of Compound (A)): did not show a marked increase
